In patent publication US10392368B2, “Pyrazolo and triazolo bicyclic compounds as JAK kinase inhibitors” (THERAVANCE BIOPHARMA R&D IP, LLC, priority 2017, dated 2019):
Where two headings read alike, the source gives them in different places.

Assays:
JAK1 = biological target: T1, JAK1 (Homo sapiens, UniProt P23458); assay: Biochemical JAK1 kinase assay (LanthaScreen); settings: for Ki: read-out: JAK 1 (pKi) (converted)
T1 construct: GST; purchased Life Technologies
Outline: (§1)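 Recombinant GST-tagged JAK enzymes with GFP-STAT1 peptide substrate in 50 mM HEPES pH 7.5, 10 mM MgCl2, 1 mM EGTA, 0.01% Brij-35; compounds pre-incubated 1 h, then ATP added, 1 h reaction at ambient temperature. TR-FRET (Tb-anti-pSTAT1 pTyr701, 520/495 nm) after EDTA stop; IC50 by 4-parameter fit, converted to pKi via Cheng-Prusoff.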

[1] = system: IL-2 stimulated pSTAT5 in Tall-1 T cells; assay: Cellular JAK3 potency assay: inhibition of IL-2 stimulated pSTAT5 in Tall-1 T cells; type: cell-based, human; settings: for IC50: Homo sapiens, read-out: Tall-1 (pIC50) (converted)
Outline: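 Inhibition of IL-2-induced pSTAT5 was quantified by AlphaLisa in Tall-1 cell lysates. Compound exposure lasted 1 h before 30 min stimulation with 300 ng/ml IL-2 final.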

JAK3 = biological target: T2, JAK3 (Homo sapiens, UniProt P52333); assay: Biochemical JAK3 kinase assay (LanthaScreen); design: GST; purchased Life Technologies; settings: for Ki: read-out: JAK 3 (pKi) (converted)
T2 sequence (P52333 1-1124): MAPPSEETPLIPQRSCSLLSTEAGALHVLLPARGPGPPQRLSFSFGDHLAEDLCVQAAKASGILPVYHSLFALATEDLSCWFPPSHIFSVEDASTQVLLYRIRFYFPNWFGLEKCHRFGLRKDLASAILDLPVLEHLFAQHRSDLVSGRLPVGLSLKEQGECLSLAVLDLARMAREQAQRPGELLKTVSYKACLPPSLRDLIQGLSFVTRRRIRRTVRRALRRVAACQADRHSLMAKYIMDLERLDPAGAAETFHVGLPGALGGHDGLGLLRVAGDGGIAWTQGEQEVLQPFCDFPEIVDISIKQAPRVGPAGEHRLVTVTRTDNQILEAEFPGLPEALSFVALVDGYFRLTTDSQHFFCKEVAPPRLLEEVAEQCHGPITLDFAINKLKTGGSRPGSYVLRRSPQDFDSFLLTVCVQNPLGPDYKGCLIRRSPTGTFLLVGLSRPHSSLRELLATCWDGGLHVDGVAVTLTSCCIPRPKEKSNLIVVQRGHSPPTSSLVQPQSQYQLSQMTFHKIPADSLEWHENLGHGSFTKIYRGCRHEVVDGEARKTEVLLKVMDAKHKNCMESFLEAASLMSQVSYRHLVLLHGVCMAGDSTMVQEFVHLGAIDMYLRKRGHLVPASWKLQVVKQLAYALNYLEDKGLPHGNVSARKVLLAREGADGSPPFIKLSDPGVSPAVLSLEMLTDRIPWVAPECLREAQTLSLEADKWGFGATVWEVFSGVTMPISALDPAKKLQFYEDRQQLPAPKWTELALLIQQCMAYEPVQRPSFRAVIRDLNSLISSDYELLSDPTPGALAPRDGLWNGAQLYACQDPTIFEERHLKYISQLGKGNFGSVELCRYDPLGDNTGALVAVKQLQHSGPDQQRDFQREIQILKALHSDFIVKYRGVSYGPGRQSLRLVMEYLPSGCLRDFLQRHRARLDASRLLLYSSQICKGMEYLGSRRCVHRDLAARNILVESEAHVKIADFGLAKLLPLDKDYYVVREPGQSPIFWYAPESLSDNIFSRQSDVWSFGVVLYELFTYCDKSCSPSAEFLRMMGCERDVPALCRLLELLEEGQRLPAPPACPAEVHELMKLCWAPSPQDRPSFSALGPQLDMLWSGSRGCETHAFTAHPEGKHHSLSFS
Outline: as §1

[2] = IL-2 stimulated pSTAT5 in Tall-1 T cells
[3] = selectivity: difference of pKi JAK3 and pKi JAK1
[4] = TALL-1, IL-2 stimulated pSTAT5, Tall-1 T cells
[5] = selectivity JAK3 over JAK1, difference of pKi
[6] = IL-2 stimulated pSTAT5, Tall-1 T cells
[7] = TALL-1, IL-2 stimulated pSTAT5 in Tall-1 T cells

T1 sequence (P23458 whole entry): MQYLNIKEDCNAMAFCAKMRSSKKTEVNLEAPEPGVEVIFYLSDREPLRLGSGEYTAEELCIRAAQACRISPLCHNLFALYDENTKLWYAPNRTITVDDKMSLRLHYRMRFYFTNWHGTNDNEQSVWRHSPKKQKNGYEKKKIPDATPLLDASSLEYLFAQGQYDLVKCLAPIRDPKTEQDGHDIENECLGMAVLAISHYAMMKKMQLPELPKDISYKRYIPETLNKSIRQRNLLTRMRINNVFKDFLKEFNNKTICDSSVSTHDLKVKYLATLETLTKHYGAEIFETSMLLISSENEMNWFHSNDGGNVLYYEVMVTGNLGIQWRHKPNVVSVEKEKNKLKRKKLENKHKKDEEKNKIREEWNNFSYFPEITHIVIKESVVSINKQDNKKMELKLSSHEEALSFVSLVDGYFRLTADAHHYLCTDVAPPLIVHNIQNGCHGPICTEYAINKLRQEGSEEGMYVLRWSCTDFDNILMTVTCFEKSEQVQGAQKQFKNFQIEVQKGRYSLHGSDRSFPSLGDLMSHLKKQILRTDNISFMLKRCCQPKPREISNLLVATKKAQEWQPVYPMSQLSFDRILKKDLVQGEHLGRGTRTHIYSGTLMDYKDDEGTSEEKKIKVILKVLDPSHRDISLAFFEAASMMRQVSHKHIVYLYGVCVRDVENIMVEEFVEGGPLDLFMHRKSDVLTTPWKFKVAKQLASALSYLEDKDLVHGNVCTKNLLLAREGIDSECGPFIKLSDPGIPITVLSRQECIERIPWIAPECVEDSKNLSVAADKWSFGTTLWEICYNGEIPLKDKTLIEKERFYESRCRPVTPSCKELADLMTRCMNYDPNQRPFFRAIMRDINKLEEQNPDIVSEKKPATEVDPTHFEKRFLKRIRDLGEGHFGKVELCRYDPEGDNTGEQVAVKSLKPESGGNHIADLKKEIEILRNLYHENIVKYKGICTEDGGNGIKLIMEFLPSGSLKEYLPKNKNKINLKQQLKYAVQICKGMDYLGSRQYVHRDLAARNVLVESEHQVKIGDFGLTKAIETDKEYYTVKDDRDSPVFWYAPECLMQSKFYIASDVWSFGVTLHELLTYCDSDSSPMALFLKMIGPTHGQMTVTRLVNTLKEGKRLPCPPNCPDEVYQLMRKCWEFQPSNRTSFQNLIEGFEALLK

| SMILES | JAK 1 (pKi) (JAK1) | Tall-1 (pIC50) [1, 2] | JAK 3 (pKi) (JAK3) | JAK3 (pKi)-JAK1 (pKi) (JAK3; [3]) | Ki (JAK1) | IC50 [1, 4] | Ki (JAK3) | JAK3 (pKi)-JAK1 (pKi) (JAK3; [5]) | Tall-1 (pIC50) [1, 6] | IC50 [1, 7] |
| --- | --- | --- | --- | --- | --- | --- | --- | --- | --- | --- |
| C=CC(=O)N1CC(C(C)(C)Oc2cc(-c3ccc(O)c(F)c3)cc3[nH]ncc23)C1 [Compound 3-28] | E (a pKi value of 7 or below (Ki of 100 nM or above)) | A (a pIC50 value≥7.5 (IC50≤32 nM)) | A (a pKi value≥10 (Ki≤0.1 nM)) | A (a value of 3 or above) |  |  |  |  |  |  |
| C=CC(=O)N1CCC(C(=O)Nc2cc(-c3ccc(O)cc3)cc3[nH]ncc23)CC1 [Compound 12-59] |  |  |  |  | > 100 nM | 31.6 to 200 nM | < 0.1 nM | A (a value of 3 or above) |  |  |
| C=CC(=O)N1CC2(CC(Oc3cc(-c4ccc(O)cc4)nc4[nH]ncc34)C2)C1 [Compound 15-8] | D (a pKi value between 7 and 8 (Ki between 100 nM and 10 nM)) |  | B (a pKi value between 9 and 10 (Ki between 1 nM and 0.1 nM)) |  |  |  |  | B (a value of 2.3 to 3) | B (a pIC50 value between 6.7 (included) and 7.5 (IC50 between 200 nM and 32 nM)) |  |
| CN(C)C/C=C/C(=O)N1CCC[C@H](Sc2cc(-c3ccc(O)cc3)cc3[nH]ncc23)C1 [Compound 12-7] |  |  |  |  | 10 to 100 nM | 200 to 1000 nM | 0.1 to 1 nM | C (a value of 1.8 to 2.3) |  |  |
| C=CC(=O)N1CC(F)(COc2cc(-c3ccc(O)cc3)cc3[nH]ncc23)C1 [Compound 3-6] |  |  |  | A (a value of 3 or above) | 10 to 100 nM |  | < 0.1 nM |  |  | < 31.6 nM |
| CN(C)C/C=C/C(=O)N1CCC(C)(Nc2cc(-c3ccc(O)cc3)cc3[nH]ncc23)CC1 [Compound 7-1] | E (a pKi value of 7 or below (Ki of 100 nM or above)) |  | B (a pKi value between 9 and 10 (Ki between 1 nM and 0.1 nM)) |  |  |  |  | A (a value of 3 or above) | C (a pIC50 value between 6 and 6.7 (IC50 between 1 μM and 200 nM)) |  |
| C=CC(=O)N1C[C@H](C(=O)Nc2cc(-c3ccc(O)cc3)cc3[nH]ncc23)OC(C)(C)C1 [Compound 12-62] |  |  |  |  | > 100 nM | 31.6 to 200 nM | < 0.1 nM | A (a value of 3 or above) |  |  |
| C=CC(=O)N1CCC[C@H](C(=O)Nc2cc(-c3ccc(O)cc3)cc3[nH]ncc23)C1 [Compound 12-56] |  |  |  |  | > 100 nM | 31.6 to 200 nM | < 0.1 nM | A (a value of 3 or above) |  |  |
| C=CC(=O)N1C[C@@H](Oc2cc(-c3ccc(O)cc3)cc3[nH]ncc23)C[C@@H]1C [Compound 1-12] |  |  |  | A (a value of 3 or above) | > 100 nM |  | 0.1 to 1 nM |  |  | 31.6 to 200 nM |
| C=CC(=O)N1CC[C@H](COc2nc(-c3ccc(O)c(Cl)c3)cc3[nH]ncc23)C1 [Compound 2-14] | E (a pKi value of 7 or below (Ki of 100 nM or above)) | A (a pIC50 value≥7.5 (IC50≤32 nM)) | A (a pKi value≥10 (Ki≤0.1 nM)) | A (a value of 3 or above) |  |  |  |  |  |  |
| C=CC(=O)N1CC2(CC(Oc3cc(-c4ccc(O)cc4)cc4[nH]ncc34)C2)C1 [Compound 12-21] |  |  |  |  | > 100 nM | < 31.6 nM | 0.1 to 1 nM | B (a value of 2.3 to 3) |  |  |
| CN(C)C/C=C/C(=O)N1CC2(CC(Oc3cc(-c4ccc(O)c(Cl)c4)cc4[nH]ncc34)C2)C1 [Compound 15-4] | E (a pKi value of 7 or below (Ki of 100 nM or above)) |  | A (a pKi value≥10 (Ki≤0.1 nM)) |  |  |  |  | A (a value of 3 or above) | B (a pIC50 value between 6.7 (included) and 7.5 (IC50 between 200 nM and 32 nM)) |  |
| O=C(/C=C/CN1CCC1)N1CC(COc2cc(-c3ccc(O)cc3)cc3[nH]ncc23)C1 [Compound 3-123] |  |  |  | A (a value of 3 or above) | > 100 nM |  | < 0.1 nM |  |  | 200 to 1000 nM |
| COC[C@H]1CCN(C/C=C/C(=O)N2CC(COc3cc(-c4ccc(O)cc4)cc4[nH]ncc34)C2)C1 [Compound 3-134] |  |  |  | A (a value of 3 or above) | > 100 nM |  | 0.1 to 1 nM |  |  | 31.6 to 200 nM |
| CN(C)C/C=C/C(=O)N1CCC(COc2nc(-c3ccc(O)c(Cl)c3)cc3[nH]ncc23)CC1 [Compound 14-10] | D (a pKi value between 7 and 8 (Ki between 100 nM and 10 nM)) |  | B (a pKi value between 9 and 10 (Ki between 1 nM and 0.1 nM)) |  |  |  |  | C (a value of 1.8 to 2.3) | C (a pIC50 value between 6 and 6.7 (IC50 between 1 μM and 200 nM)) |  |
| C=CC(=O)N1CCC(Oc2cc(-c3ccc(O)c(F)c3)cc3[nH]ncc23)CC1 [Compound 6-14] |  |  |  |  | 10 to 100 nM | < 31.6 nM | < 0.1 nM | B (a value of 2.3 to 3) |  |  |
| CN(C)C/C=C/C(=O)N1CC(C)(COc2cc(-c3ccc(O)c(Cl)c3)cc3[nH]ncc23)C1 [Compound 3-9] |  |  |  | B (a value of 2.3 to 3) | > 100 nM |  | 0.1 to 1 nM |  |  | 31.6 to 200 nM |
| C=CC(=O)N1CCC[C@H](Sc2cc(-c3ccc(O)cc3)cc3[nH]ncc23)C1 [Compound 12-6] |  |  |  |  | 10 to 100 nM | 31.6 to 200 nM | 0.1 to 1 nM | B (a value of 2.3 to 3) |  |  |
| C=CC(=O)N1CCC[C@@H](C(=O)Nc2cc(-c3ccc(O)cc3)cc3[nH]ncc23)C1 [Compound 12-55] |  |  |  |  | > 100 nM | 31.6 to 200 nM | < 0.1 nM | A (a value of 3 or above) |  |  |
| C=CC(=O)N1CC(CNc2cc(-c3ccc(O)cc3)cc3[nH]ncc23)C1 [Compound 4-3] | E (a pKi value of 7 or below (Ki of 100 nM or above)) | B (a pIC50 value between 6.7 (included) and 7.5 (IC50 between 200 nM and 32 nM)) | B (a pKi value between 9 and 10 (Ki between 1 nM and 0.1 nM)) | B (a value of 2.3 to 3) |  |  |  |  |  |  |
| C=CC(=O)N1C2CCC1CC(Oc1nc(-c3ccc(O)c(Cl)c3)cc3[nH]ncc13)C2 (stereo not drawn) [Compound 9-7] | E (a pKi value of 7 or below (Ki of 100 nM or above)) |  | A (a pKi value≥10 (Ki≤0.1 nM)) |  |  |  |  | A (a value of 3 or above) | B (a pIC50 value between 6.7 (included) and 7.5 (IC50 between 200 nM and 32 nM)) |  |
